The values below come from patent US4902799A, “Bicyclic alkoxy- and alkylthio-substituted aminoalcohols” (Maggioni-Winthrop S.p.A., priority 1985, dated 1990).

Series [1] relates to male mice. Put plainly: Anti-hypoxic activity (gasping time after decapitation). It counts as in vivo. The following applies: Mus musculus, po, read-out: Gasping time, % diff. from control.
Another series relates to platelet aggregation. Description: Collagen-induced platelet aggregation ex vivo. It counts as in vivo, rat. The following applies: 0.15 mM/kg oral, blood 1 hr after treatment, collagen 2-4 mcg/ml.
The test system of another series is Normolipemic rats. Description: Hypolipemic activity in normolipemic rats. The series is classed as in vivo, rat (Sprague Dawley Nos male rats).
The subject of another series is toxic adrenaline doses. Description: animal or person. It counts as in vivo, mouse (male mice CrI:CD 1(CR) BR). The following applies: Mus musculus, po, 24 h, read-out: PD50 (50% protective dose).
Series [2] relates to male mice. The following applies: mouse, in vivo, po.

`COc1ccc2cc(C(O)C(C)N3CCN(c4ccccc4)CC3)ccc2c1` (stereo not shown) [MG 38088, 2-(4-Phenyl-1-piperazinyl)-1-(6-methoxy-2-naphthyl)-propanol]: the change in vivo at 100 mg/kg in the series on male mice [1] turned out to be 46.8%. Further, in the series on platelet aggregation, the “% Inhibition, Aggregation rate” value came to 75.1% and the “% Inhibition, Maximum aggregation” value was determined as 68.6%. Further, in the series with Normolipemic rats (0.185 mM/kg/p.o. × 4 days), the “CHOL, % different from control” value is reported as -35.1%; the “CHOL-HDL, % different from control” value is -9.1%; the “Liver Weight, % different from control” value amounted to 0%; the “TG, % different from control” value was -70.5%. In the series with Normolipemic rats (0.37 mM/kg/p.o. × 4 days), the “CHOL, % different from control” value is on record as -41.3%; the “CHOL-HDL, % different from control” value is on record as “+5.4%”; the “Liver Weight, % different from control” value is given as “+3.4%”; the “TG, % different from control” value is listed as -68.5%. Further, the ED50 with toxic adrenaline doses turned out to be 13.5 mg/kg. For the same compound, in the series on male mice [2], the LD50 entry is reported as “higher than 1000 mg/kg”.
